Laboratory results reported in ChEMBL document CHEMBL3769367, “Orexin Receptor Antagonists: New Therapeutic Agents for the Treatment of Insomnia” (J Med Chem, 2016).

Legend:
[1] = target: T1, Orexin receptor type 2 (Homo sapiens) (UniProt O43614)
T1 sequence (whole entry): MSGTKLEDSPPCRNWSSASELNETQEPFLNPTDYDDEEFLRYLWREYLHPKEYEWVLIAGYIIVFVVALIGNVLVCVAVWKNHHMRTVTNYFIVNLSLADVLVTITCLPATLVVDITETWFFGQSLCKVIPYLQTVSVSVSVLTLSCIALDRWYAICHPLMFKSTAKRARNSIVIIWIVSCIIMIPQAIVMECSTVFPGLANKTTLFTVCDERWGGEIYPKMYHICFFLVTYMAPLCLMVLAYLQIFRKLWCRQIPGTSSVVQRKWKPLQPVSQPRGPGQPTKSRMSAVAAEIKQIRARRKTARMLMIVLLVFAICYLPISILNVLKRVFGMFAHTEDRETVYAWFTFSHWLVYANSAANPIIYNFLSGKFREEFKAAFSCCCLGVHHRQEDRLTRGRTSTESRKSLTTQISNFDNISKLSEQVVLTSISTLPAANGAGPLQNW
Description: Antagonist activity at OX2R (unknown origin)

[2] = species: Homo sapiens; assay: Selectivity ratio of IC50 for OX2R (unknown origin) to IC50 for OX1R (unknown origin)
[3] = target: T2, Orexin receptor type 2 (Homo sapiens, UniProt O43614); assay: Binding affinity to OX2R (unknown origin)
T2 sequence (O43614 whole entry): T1 sequence (whole entry)

[4] = target: T3, Orexin/Hypocretin receptor type 1 (Homo sapiens, UniProt O43613); assay: Binding affinity to OX1R (unknown origin)
T3 sequence (O43613 whole entry): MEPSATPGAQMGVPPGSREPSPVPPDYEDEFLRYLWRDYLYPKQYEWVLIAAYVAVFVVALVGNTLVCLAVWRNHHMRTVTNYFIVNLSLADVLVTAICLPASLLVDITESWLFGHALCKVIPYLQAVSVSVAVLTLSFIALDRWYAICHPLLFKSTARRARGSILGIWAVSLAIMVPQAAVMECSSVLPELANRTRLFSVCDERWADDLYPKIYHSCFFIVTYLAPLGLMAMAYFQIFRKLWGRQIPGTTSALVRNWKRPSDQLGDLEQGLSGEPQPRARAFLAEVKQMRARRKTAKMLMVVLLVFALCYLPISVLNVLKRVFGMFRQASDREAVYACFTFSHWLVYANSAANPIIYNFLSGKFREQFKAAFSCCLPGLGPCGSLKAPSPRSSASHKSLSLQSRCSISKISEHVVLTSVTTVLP

With `CC1(C)OC[C@H](NC(=O)Nc2ccc(Br)cc2Br)[C@H](c2ccccc2)O1` the pKb [1] was 8.3.

In the case of `COc1ccc(CC2c3cc(OC)c(OC)cc3CCN2CC(=O)NCc2ccccc2)cc1OC` (stereo unspecified), the Ratio IC50 [2] is reported as 68.

Compound `Cc1ccc(-n2nccn2)c(C(=O)N2C[C@@H](COc3ccc(F)c(C)c3)CC[C@H]2C)c1` (racemic) has a Ki [3] of 22 nM and a Ki [4] of 34 nM.

`Cc1ccc(-n2nccn2)c(C(=O)N2C[C@H](COc3ccc(F)c(C)c3)CC[C@H]2C)c1` (racemic) was tested, and the Ki [3] was 0.1 nM and the Ki [4] was 0.3 nM.
